Patent US11427615B2, “Peptide compound and application thereof, and composition containing peptide compound” (XDCEXPLORER (SHANGHAI) CO., LTD., priority 2017, dated 2022)
Starred links: 1 amine or outer side, 2 acyl side, 3 side chain; linkers in the order of their positions; H or OH if unused. Positions of bridges follow the written chain, without caps; N, C: chain ends. Non-standard residues stand in square brackets, D forms with d. Residues, ends and D or L forms follow the SMILES beside them. cPrCO(1-aminomethyl) = O=C(C1(CN[*:1])CC1)[*:2]; dPhe(2,4-Cl2) = N[C@H](Cc1ccc(Cl)cc1Cl)C(=O)O; PEG8 = NCCOCCOCCOCCOCCOCCOCCOCCOCCC(=O)O; Ala(2-furyl) = N[C@@H](Cc1ccco1)C(=O)O; Pro(4,4-F2) = O=C(O)[C@@H]1CC(F)(F)CN1; dAla(2-furyl) = N[C@H](Cc1ccco1)C(=O)O; dPhe(4-F) = N[C@H](Cc1ccc(F)cc1)C(=O)O; Arg(Me) = CNC(=N)NCCC[C@H](N)C(=O)O; Hyp = O=C(O)[C@@H]1C[C@@H](O)CN1; azaPro = O=C(N1CCCN1[*:1])[*:2]; 2Thi = N[C@@H](Cc1cccs1)C(=O)O; NMeL = CN[C@@H](CC(C)C)C(=O)O; S5 = C=CCCC[C@](C)(N)C(=O)O; Pip = O=C(O)[C@@H]1CCCCN1; Ac6c = NC1(C(=O)O)CCCCC1; Aze = O=C(O)[C@@H]1CCN1; azaGly = NNC(=O)O; βAla = NCCC(=O)O

target: T1, human kiss1 receptor (GPR54) (Homo sapiens, UniProt Q969F8); assay: Kiss1 receptor (GPR54) binding activity of agonists, FRET detection in NFAT-bla CHO-K1 cells; type: cell-based; conditions: GPR54; measured according to the method of effect Embodiment 1; preliminary data; read-out: Preliminary measurement data (GPR54) EC50
T1 construct: host or cells: NFAT-bla CHO-K1 cells (Chinese hamster ovary), purchased recombinant cell line
T1 sequence (Q969F8 whole entry): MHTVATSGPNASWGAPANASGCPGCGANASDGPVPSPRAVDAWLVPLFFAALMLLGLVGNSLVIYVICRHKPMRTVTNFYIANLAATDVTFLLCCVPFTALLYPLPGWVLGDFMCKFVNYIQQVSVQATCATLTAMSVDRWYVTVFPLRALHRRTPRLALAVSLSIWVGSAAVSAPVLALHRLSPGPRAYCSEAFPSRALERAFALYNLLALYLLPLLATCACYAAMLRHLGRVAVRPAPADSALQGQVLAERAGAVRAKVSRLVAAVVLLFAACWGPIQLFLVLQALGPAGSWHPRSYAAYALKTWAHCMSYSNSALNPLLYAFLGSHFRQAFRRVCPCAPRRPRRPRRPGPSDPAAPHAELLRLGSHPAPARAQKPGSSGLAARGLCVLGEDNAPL

SMILES	EC50 [pM]
CNC(=N)NCCC[C@H](NC(=O)[C@H](CC(C)C)NC(=O)NNC(=O)[C@H](Cc1ccccc1)NC(=O)[C@H](Cc1ccco1)NC(=O)[C@H](CC(N)=O)NC(=O)[C@@H]1C[C@@H](O)CN1C(=O)[C@@H](Cc1ccc(O)cc1)NC(C)=O)C(=O)N[C@@H](Cc1c[nH]c2ccccc12)C(N)=O [YA-143, Ac-D-Tyr-Hyp-Asn-2Fua-Phe-azaGly-Leu-Arg(Me)-Trp-NH2] (Ac-[dY][Hyp]N[Ala(2-furyl)]F[azaGly]L[Arg(Me)]W-NH2)	23
CNC(=N)NCCC[C@H](NC(=O)[C@H](CC(C)C)NC(=O)NNC(=O)[C@H](Cc1ccccc1)NC(=O)[C@H](Cc1cccs1)NC(=O)[C@H](CC(N)=O)NC(=O)[C@@H]1C[C@@H](O)CN1C(=O)[C@@H](Cc1ccc(O)cc1)NC(C)=O)C(=O)N[C@@H](Cc1c[nH]c2ccccc12)C(N)=O [YA-144, Ac-(D-Tyr)-Hyp-Asn-Thi-Phe-azaGly-Leu-Arg(Me)-Trp-NH2] (Ac-[dY][Hyp]N[2Thi]F[azaGly]L[Arg(Me)]W-NH2)	201
CNC(=N)NCCC[C@H](NC(=O)[C@H](CC(C)C)NC(=O)NNC(=O)[C@H](Cc1ccccc1)NC(=O)[C@@H](NC(=O)[C@H](CC(N)=O)NC(=O)C1(CNC(=O)[C@@H](Cc2ccc(O)cc2)NC(C)=O)CC1)[C@@H](C)O)C(=O)N[C@@H](Cc1c[nH]c2ccccc12)C(N)=O [YA-145, Ac-D-Tyr-ACPA-Asn-Thr-Phe-azaGly-Leu-Arg(Me)-Trp-NH2] (Ac-[dY][cPrCO(1-aminomethyl)]NTF[azaGly]L[Arg(Me)]W-NH2)	34
CC(=O)N[C@@H](Cc1ccc(O)cc1)C(=O)N[C@@H](CC(N)=O)C(=O)N[C@@H](Cc1c[nH]c2ccccc12)C(=O)N[C@@]1(C)CCCC=CCCC[C@@](C)(C(=O)N[C@@H](CCCNC(=N)N)C(=O)N[C@@H](Cc2ccccc2)C(N)=O)NC(=O)CNC(=O)[C@H](Cc2ccccc2)NC(=O)[C@H](CO)NC1=O [YA-146, Ac-Tyr-Asn-Trp-X-Ser-Phe-Gly-X-Arg-Phe-NH2 (stapled)] (Ac-YNW[S5]SFG[S5]RF-NH2; staple 4-8)	545000
CNC(=N)NCCC[C@H](NC(=O)[C@H](CC(C)C)NC(=O)NNC(=O)[C@H](Cc1ccccc1)NC(=O)[C@@H](NC(=O)[C@H](CC(N)=O)NC(=O)[C@@H]1C[C@@H](O)CN1C(=O)[C@@H](Cc1ccc(O)cc1)NC(=O)CCOCCOCCOCCOCCOCCOCCOCCOCCNC(C)=O)[C@@H](C)O)C(=O)N[C@@H](Cc1c[nH]c2ccccc12)C(N)=O [YA-151, Ac-PEG8-(D-Tyr)-Hyp-Asn-Thr-Phe-azaGly-Leu-Arg (Me)-Trp-NH2] (Ac-[PEG8][dY][Hyp]NTF[azaGly]L[Arg(Me)]W-NH2)	45
CNC(=N)NCCC[C@H](NC(=O)[C@H](CC(C)C)NC(=O)[C@@H]1CCN1C(=O)[C@H](Cc1ccccc1)NC(=O)[C@@H](NC(=O)[C@H](CC(N)=O)NC(=O)[C@@H]1C[C@@H](O)CN1C(=O)[C@@H](Cc1ccc(O)cc1)NC(C)=O)[C@@H](C)O)C(=O)N[C@@H](Cc1c[nH]c2ccccc12)C(N)=O [YA-153, Ac-D-Tyr-Hyp-Asn-Thr-Phe-Aze-Leu-Arg(Me)-Trp-NH2] (Ac-[dY][Hyp]NTF[Aze]L[Arg(Me)]W-NH2)	180
CCCCCCCCCCCCCCCC(=O)NCCOCCOCCOCCOCCOCCOCCOCCOCCC(=O)NCC(=O)NCC(=O)N[C@@H](Cc1ccc(O)cc1)C(=O)N[C@@H](CC(N)=O)C(=O)N[C@@H](Cc1c[nH]c2ccccc12)C(=O)N[C@@H](CC(N)=O)C(=O)N[C@@H](CO)C(=O)N[C@@H](Cc1ccccc1)C(=O)NCC(=O)N[C@@H](CC(C)C)C(=O)N[C@@H](CCCNC(=N)N)C(=O)N[C@@H](Cc1ccccc1)C(N)=O [YA-158, Palm-PEG8-Gly-Gly-Tyr-Asn-Trp-Asn-Ser-Phe-Gly-Leu-Arg-Phe-NH2]	47.8
CNC(=N)NCCC[C@H](NC(=O)[C@H](CC(C)C)N(C)C(=O)CCNC(=O)[C@H](Cc1ccccc1)NC(=O)[C@@H](NC(=O)[C@H](CC(N)=O)NC(=O)[C@@H]1C[C@@H](O)CN1C(=O)[C@@H](Cc1ccco1)NC(C)=O)[C@@H](C)O)C(=O)N[C@@H](Cc1c[nH]c2ccccc12)C(N)=O [YA-164, Ac-[3-(2-furyl)-D-Ala]-Hyp-Asn-Thr-Phe-BetaAla-(NMe-Leu)-Arg(Me)-Trp-NH2] (Ac-[dAla(2-furyl)][Hyp]NTF[βAla][NMeL][Arg(Me)]W-NH2)	1750
CNC(=N)NCCC[C@H](NC(=O)[C@H](CC(C)C)NC(=O)NNC(=O)[C@H](Cc1ccccc1)NC(=O)[C@@H](NC(=O)[C@H](CC(N)=O)NC(=O)[C@@H](Cc1ccco1)NC(=O)[C@@H](Cc1ccc(O)cc1)NC(C)=O)[C@@H](C)O)C(=O)N[C@@H](Cc1c[nH]c2ccccc12)C(N)=O [YA-165, Ac-D-Tyr-(D-2Fua)-Asn-Thr-Phe-azaGly-Leu-Arg(Me)-Trp-NH2] (Ac-[dY][dAla(2-furyl)]NTF[azaGly]L[Arg(Me)]W-NH2)	25
CNC(=N)NCCC[C@H](NC(=O)[C@H](CC(C)C)NC(=O)NNC(=O)[C@H](Cc1ccccc1)NC(=O)[C@@H](Cc1ccco1)NC(=O)[C@H](CC(N)=O)NC(=O)[C@@H]1C[C@@H](O)CN1C(=O)[C@@H](Cc1ccc(O)cc1)NC(C)=O)C(=O)N[C@@H](Cc1c[nH]c2ccccc12)C(N)=O [YA-166] (Ac-[dY][Hyp]N[dAla(2-furyl)]F[azaGly]L[Arg(Me)]W-NH2)	860
CNC(=N)NCCC[C@H](NC(=O)[C@H](CC(C)C)NC(=O)[C@@H](Cc1ccco1)NC(=O)[C@H](Cc1ccccc1)NC(=O)[C@@H](NC(=O)[C@H](CC(N)=O)NC(=O)[C@@H]1C[C@@H](O)CN1C(=O)[C@@H](Cc1ccc(O)cc1)NC(C)=O)[C@@H](C)O)C(=O)N[C@@H](Cc1c[nH]c2ccccc12)C(N)=O [YA-168, Ac-D-Tyr-Hyp-Asn-Thr-Phe-(D-2Fua)-Leu-Arg(Me)-Trp-NH2] (Ac-[dY][Hyp]NTF[dAla(2-furyl)]L[Arg(Me)]W-NH2)	531
CNC(=N)NCCC[C@H](NC(=O)[C@H](CC(C)C)NC(=O)NNC(=O)[C@H](Cc1ccccc1)NC(=O)[C@@H](NC(=O)[C@H](CC(N)=O)NC(=O)[C@@H]1C[C@@H](O)CN1C(=O)[C@@H](Cc1ccc(O)cc1)NC(C)=O)[C@@H](C)O)C(=O)N[C@H](Cc1ccco1)C(N)=O [YA-169, Ac-(D-Tyr)-Hyp-Asn-Thr-Phe-azaGly-Leu-Arg(Me)-[3-(2-furyl)-D-Ala]-NH2] (Ac-[dY][Hyp]NTF[azaGly]L[Arg(Me)][dAla(2-furyl)]-NH2)	6530
CNC(=N)NCCC[C@H](NC(=O)[C@H](CC(C)C)NC(=O)NNC(=O)[C@H](Cc1ccccc1)NC(=O)[C@@H](NC(=O)[C@H](CC(N)=O)NC(=O)[C@@H]1C[C@@H](O)CN1C(=O)[C@@H](Cc1ccc(F)cc1)NC(C)=O)[C@@H](C)O)C(=O)N[C@@H](Cc1c[nH]c2ccccc12)C(N)=O [YA-170, Ac-[D-Phe(4-F)]-Hyp-Asn-Thr-Phe-azaGly-Leu-Arg(Me)-Trp-NH2] (Ac-[dPhe(4-F)][Hyp]NTF[azaGly]L[Arg(Me)]W-NH2)	7
CNC(=N)NCCC[C@H](NC(=O)[C@H](CC(C)C)NC(=O)NNC(=O)C1(NC(=O)[C@@H](NC(=O)[C@H](CC(N)=O)NC(=O)[C@@H]2C[C@@H](O)CN2C(=O)[C@@H](Cc2ccc(O)cc2)NC(C)=O)[C@@H](C)O)CCCCC1)C(=O)N[C@@H](Cc1c[nH]c2ccccc12)C(N)=O [YA-174, Ac-(D-Tyr)-Hyp-Asn-Thr-A6c-azaGly-Leu-Arg(Me)-Trp-NH2] (Ac-[dY][Hyp]NT[Ac6c][azaGly]L[Arg(Me)]W-NH2)	2600
CNC(=N)NCCC[C@H](NC(=O)[C@H](CC(C)C)NC(=O)NNC(=O)[C@H](Cc1ccccc1)NC(=O)[C@@H](NC(=O)[C@H](CC(N)=O)NC(=O)[C@H](Cc1cccs1)NC(=O)[C@@H](Cc1ccc(Cl)cc1Cl)NC(C)=O)[C@@H](C)O)C(=O)N[C@@H](Cc1c[nH]c2ccccc12)C(N)=O [YA-178, Ac-[D-Phe(2,4-DiCl)]-Thi-Asn-Thr-Phe-azaGly-Leu-Arg(Me)-Trp-NH2] (Ac-[dPhe(2,4-Cl2)][2Thi]NTF[azaGly]L[Arg(Me)]W-NH2)	11
CNC(=N)NCCC[C@H](NC(=O)[C@H](CC(C)C)NC(=O)N1CCCN1C(=O)[C@H](Cc1ccccc1)NC(=O)[C@@H](NC(=O)[C@H](CC(N)=O)NC(=O)[C@@H]1C[C@@H](O)CN1C(=O)[C@@H](Cc1ccc(Cl)cc1Cl)NC(C)=O)[C@@H](C)O)C(=O)N[C@@H](Cc1c[nH]c2ccccc12)C(N)=O [YA-184, Ac-[D-Phe(2,4-DiCl)]-Hyp-Asn-Thr-Phe-azaPro-Leu-Arg(Me)-Trp-NH2] (Ac-[dPhe(2,4-Cl2)][Hyp]NTF[azaPro]L[Arg(Me)]W-NH2)	48000
CNC(=N)NCCC[C@H](NC(=O)[C@H](CC(C)C)N(C)C(=O)CCNC(=O)[C@H](Cc1ccccc1)NC(=O)[C@@H](NC(=O)[C@H](CC(N)=O)NC(=O)[C@@H]1CCCCN1C(=O)[C@@H](Cc1ccc(Cl)cc1Cl)NC(C)=O)[C@@H](C)O)C(=O)N[C@@H](Cc1c[nH]c2ccccc12)C(N)=O [YA-185, Ac-[D-Phe(2,4-DiCl)]-(S-Pip)-Asn-Thr-Phe-BetaAla-NMeLeu-Arg(Me)-Trp-NH2] (Ac-[dPhe(2,4-Cl2)][Pip]NTF[βAla][NMeL][Arg(Me)]W-NH2)	3630
CNC(=N)NCCC[C@H](NC(=O)[C@H](CC(C)C)N(C)C(=O)CCNC(=O)[C@H](Cc1ccccc1)NC(=O)[C@@H](NC(=O)[C@H](CC(N)=O)NC(=O)[C@@H]1CC(F)(F)CN1C(=O)[C@@H](Cc1ccco1)NC(C)=O)[C@@H](C)O)C(=O)N[C@@H](Cc1c[nH]c2ccccc12)C(N)=O [YA-186, Ac-[3-(2-Furyl)-D-Ala]-(DiFluorPro)-Asn-Thr-Phe-BetaAla-NMeLeu-Arg(Me)-Trp-NH2] (Ac-[dAla(2-furyl)][Pro(4,4-F2)]NTF[βAla][NMeL][Arg(Me)]W-NH2)	3890
CNC(=N)NCCC[C@H](NC(=O)[C@H](CC(C)C)N(C)C(=O)CCNC(=O)[C@H](Cc1ccccc1)NC(=O)[C@@H](NC(=O)[C@H](CC(N)=O)NC(=O)[C@@H]1C[C@@H](O)CN1C(=O)[C@@H](Cc1ccc(Cl)cc1Cl)NC(C)=O)[C@@H](C)O)C(=O)N[C@@H](Cc1c[nH]c2ccccc12)C(N)=O [YA-187, Ac-[D-Phe(2,4-DiCl)]-Hyp-Asn-Thr-Phe-BetaAla-NMeLeu-Arg(Me)-Trp-NH2] (Ac-[dPhe(2,4-Cl2)][Hyp]NTF[βAla][NMeL][Arg(Me)]W-NH2)	1850
